We go through 30 compounds from patent US8846698B2, “Pyrrolo[2,3-d]pyrimidine tropomysin-related kinase inhibitors” (Pfizer Limited, priority 2011, dated 2014).

In the assay the target is TRKA (Homo sapiens (Human), UniProt P04629). Description: Isolated TRK enzyme assay (HTRF KinEASE-TK), TRKA. The class given is biochemical. The settings on record: read-out: Trka enzyme (IC50). Background: Time-resolved FRET reads energy transfer from a long-lived donor to a nearby acceptor.
Chain of TRKA (P04629 441-796): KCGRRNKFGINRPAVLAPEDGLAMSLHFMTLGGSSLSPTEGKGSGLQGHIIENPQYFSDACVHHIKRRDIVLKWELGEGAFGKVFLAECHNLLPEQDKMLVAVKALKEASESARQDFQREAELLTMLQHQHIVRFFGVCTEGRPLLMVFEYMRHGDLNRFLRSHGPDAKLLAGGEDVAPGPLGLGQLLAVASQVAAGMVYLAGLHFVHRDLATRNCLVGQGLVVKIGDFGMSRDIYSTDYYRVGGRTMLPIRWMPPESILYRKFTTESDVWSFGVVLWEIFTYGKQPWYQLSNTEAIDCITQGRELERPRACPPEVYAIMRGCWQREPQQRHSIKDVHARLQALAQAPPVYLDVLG

In general, IC50 refers to the point on the concentration scale where inhibition reaches its midpoint. Take `N#Cc1ccc(CC(=O)Nc2cncc(C(=O)c3cn(C4COC4)c4ncncc34)c2)cc1` [Example 218, 2-(4-cyanophenyl)-N-{5-[(7-oxetan-3-yl-7H-pyrrolo[2,3-d]pyrimidin-5-yl)carbonyl]pyridin-3-yl}acetamide]: the IC50 was 1210 nM. The figure for `O=C(Cc1ccc(Cl)cc1)Nc1cncc(C(=O)c2cn(C3COC3)c3ncncc23)c1` [Example 219, 2-(4-chlorophenyl)-N-{5-[(7-oxetan-3-yl-7H-pyrrolo[2,3-d]pyrimidin-5-yl)carbonyl]pyridin-3-yl}acetamide] is 286 nM. `O=C(Cc1cccc(Cl)c1)Nc1cncc(C(=O)c2cn(C3COC3)c3ncncc23)c1` [Example 220, 2-(3-chlorophenyl)-N-{5-[(7-oxetan-3-yl-7H-pyrrolo[2,3-d]pyrimidin-5-yl)carbonyl]pyridin-3-yl}acetamide]: the IC50 is 462 nM. Next, `N#Cc1cccc(CC(=O)Nc2cncc(C(=O)c3cn(C4COC4)c4ncncc34)c2)c1` [Example 221, 2-(3-cyanophenyl)-N-{5-[(7-oxetan-3-yl-7H-pyrrolo[2,3-d]pyrimidin-5-yl)carbonyl]pyridin-3-yl}acetamide]: 3100 nM. Next, `O=C(Cc1ccc2cccnc2c1)Nc1cncc(C(=O)c2cn(C3COC3)c3ncncc23)c1` [Example 222, N-{5-[(7-oxetan-3-yl-7H-pyrrolo[2,3-d]pyrimidin-5-yl)carbonyl]pyridin-3-yl}-2-quinolin-7-ylacetamide]: 692 nM. The figure for `O=C(Cc1cn2cc(Cl)ccc2n1)Nc1cncc(C(=O)c2cn(C3COC3)c3ncncc23)c1` [Example 223, 2-(6-chloroimidazo[1,2-a]pyridin-2-yl)-N-{5-[(7-oxetan-3-yl-7H-pyrrolo[2,3-d]pyrimidin-5-yl)carbonyl]pyridin-3-yl}acetamide] is 1660 nM; for `O=C(CN1Cc2ccccc2C1=O)Nc1cncc(C(=O)c2cn(C3COC3)c3ncncc23)c1` [Example 224, N-{5-[(7-oxetan-3-yl-7H-pyrrolo[2,3-d]pyrimidin-5-yl)carbonyl]pyridin-3-yl}-2-(1-oxo-1,3-dihydro-2H-isoindol-2-yl)acetamide] it is 3100 nM; for `CC(C)(CO)n1cc(C(=O)c2cncc(NC(=O)Cc3ccc(C#N)cc3)c2)c2cncnc21` [Example 225, 2-(4-cyanophenyl)-N-(5-{[7-(2-hydroxy-1,1-dimethylethyl)-7H-pyrrolo[2,3-d]pyrimidin-5-yl]carbonyl}pyridin-3-yl)acetamide] it is 27.7 nM. For the compound `CC(C)(CO)n1cc(C(=O)c2cncc(NC(=O)Cc3cccc(C(F)(F)F)c3)c2)c2cncnc21` [Example 226, N-(5-{[7-(2-hydroxy-1,1-dimethylethyl)-7H-pyrrolo[2,3-d]pyrimidin-5-yl]carbonyl}pyridin-3-yl)-2-[3-(trifluoromethyl)phenyl]acetamide], the IC50 amounted to 3.61 nM.

In the case of `CC(C)c1cn(CC(=O)Nc2cncc(C(=O)c3cn(C(C)(C)CO)c4ncncc34)c2)nn1` [Example 227, N-(5-{[7-(2-hydroxy-1,1-dimethylethyl)-7H-pyrrolo[2,3-d]pyrimidin-5-yl]carbonyl}pyridin-3-yl)-2-(4-isopropyl-1H-1,2,3-triazol-1-yl)acetamide], the IC50 stood at 12.5 nM. The figure for `CC(C)(CO)n1cc(C(=O)c2cncc(NC(=O)Cc3ccc4cccnc4c3)c2)c2cncnc21` [Example 228, N-(5-{[7-(2-hydroxy-1,1-dimethylethyl)-7H-pyrrolo[2,3-d]pyrimidin-5-yl]carbonyl}pyridin-3-yl)-2-quinolin-7-ylacetamide] is 14.9 nM; for `CC(CO)(CO)n1cc(C(=O)c2cncc(NC(=O)Cc3ccc(C#N)cc3)c2)c2cncnc21` [Example 232, 2-(4-Cyanophenyl)-N-[5-({7-[2-hydroxy-1-(hydroxymethyl)-1-methylethyl]-7H-pyrrolo[2,3-d]pyrimidin-5-yl}carbonyl)pyridin-3-yl]acetamide] it is 274 nM. The figure for `CC(CO)(CO)n1cc(C(=O)c2cncc(NC(=O)Cc3ccc4cccnc4c3)c2)c2cncnc21` [Example 233, N-[5-({7-[2-hydroxy-1-(hydroxymethyl)-1-methylethyl]-7H-pyrrolo[2,3-d]pyrimidin-5-yl}carbonyl)pyridin-3-yl]-2-quinolin-7-ylacetamide] is 96.5 nM; for `Cc1cc(C(F)(F)F)nn1CC(=O)Nc1cncc(C(=O)c2cn(C(C)(CO)CO)c3ncncc23)c1` [Example 234, N-[5-({7-[2-hydroxy-1-(hydroxymethyl)-1-methylethyl]-7H-pyrrolo[2,3-d]pyrimidin-5-yl}carbonyl)pyridin-3-yl]-2-[5-methyl-3-(trifluoromethyl)-1H-pyrazol-1-yl]acetamide] it is 84.9 nM; for `CC(CO)(CO)n1cc(C(=O)c2cncc(NC(=O)Cc3ccc(Cl)cc3)c2)c2cncnc21` [Example 235, 2-(4-chlorophenyl)-N-[5-({7-[2-hydroxy-1-(hydroxymethyl)-1-methylethyl]-7H-pyrrolo[2,3-d]pyrimidin-5-yl}carbonyl)pyridin-3-yl]acetamide] it is 70.5 nM. For `CC(CO)(CO)n1cc(C(=O)c2cncc(NC(=O)Cc3ccc(C(F)(F)F)cc3)c2)c2cncnc21` [Example 236, N-[5-({7-[2-hydroxy-1-(hydroxymethyl)-1-methylethyl]-7H-pyrrolo[2,3-d]pyrimidin-5-yl}carbonyl)pyridin-3-yl]-2-[4-(trifluoromethyl)phenyl]acetamide], the IC50 was determined as 25.2 nM.

On to `CC(CO)(CO)n1cc(C(=O)c2cncc(NC(=O)Cc3ccc(Cl)cn3)c2)c2cncnc21` [Example 237, 2-(5-chloropyridin-2-yl)-N-[5-({7-[2-hydroxy-1-(hydroxymethyl)-1-methylethyl]-7H-pyrrolo[2,3-d]pyrimidin-5-yl}carbonyl)pyridin-3-yl]acetamide], for which the IC50 came out at 73.9 nM. Next, `CC(CO)(CO)n1cc(C(=O)c2cncc(NC(=O)Cc3cccc(C(F)(F)F)c3)c2)c2cncnc21` [Example 238, N-[5-({7-[2-hydroxy-1-(hydroxymethyl)-1-methylethyl]-7H-pyrrolo[2,3-d]pyrimidin-5-yl}carbonyl)pyridin-3-yl]-2-[3-(trifluoromethyl)phenyl]acetamide]: 9.36 nM; `CC(CO)(CO)n1cc(C(=O)c2cncc(NC(=O)Cn3ccc(C(F)(F)F)n3)c2)c2cncnc21` [Example 239, N-[5-({7-[2-hydroxy-1-(hydroxymethyl)-1-methylethyl]-7H-pyrrolo[2,3-d]pyrimidin-5-yl}carbonyl)pyridin-3-yl]-2-[3-(trifluoromethyl)-1H-pyrazol-1-yl]acetamide]: 22.6 nM. Next, `CC(C)n1cc(C(=O)c2cncc(NC(=O)Cn3cc(C(F)(F)F)nn3)c2)c2cnc(N)nc21` [Example 240, N-{5-[(2-amino-7-isopropyl-7H-pyrrolo[2,3-d]pyrimidin-5-yl)carbonyl]pyridin-3-yl}-2-[4-(trifluoromethyl)-1H-1,2,3-triazol-1-yl]acetamide]: 19.2 nM. Next, `CC(C)n1cc(C(=O)c2cncc(NC(=O)Cc3ccc(C#N)cc3)c2)c2cnc(N)nc21` [Example 241, N-{5-[(2-amino-7-isopropyl-7H-pyrrolo[2,3-d]pyrimidin-5-yl)carbonyl]pyridin-3-yl}-2-(4-cyanophenyl)acetamide]: 45.3 nM. Take `CC(C)n1cc(C(=O)c2cncc(NC(=O)Cc3ccc(Cl)cn3)c2)c2cnc(N)nc21` [Example 242, N-{5-[(2-amino-7-isopropyl-7H-pyrrolo[2,3-d]pyrimidin-5-yl)carbonyl]pyridin-3-yl}-2-(5-chloropyridin-2-yl)acetamide]: the IC50 turned out to be 8.71 nM. Regarding `CC(C)n1cc(C(=O)c2cncc(NC(=O)Cc3ccc(F)cn3)c2)c2cnc(N)nc21` [Example 243, N-{5-[(2-amino-7-isopropyl-7H-pyrrolo[2,3-d]pyrimidin-5-yl)carbonyl]pyridin-3-yl}-2-(5-fluoropyridin-2-yl)acetamide], the IC50 amounted to 38.4 nM. Next, `CC(C)n1cc(C(=O)c2cncc(NC(=O)Cc3ccc(C(F)(F)F)cc3)c2)c2cnc(N)nc21` [Example 244, N-{5-[(2-amino-7-isopropyl-7H-pyrrolo[2,3-d]pyrimidin-5-yl)carbonyl]pyridin-3-yl}-2-[4-(trifluoromethyl)phenyl]acetamide]: 4.69 nM; `CC(C)n1cc(C(=O)c2cncc(NC(=O)Cc3cccc(C(F)(F)F)c3)c2)c2cnc(N)nc21` [Example 245, N-{5-[(2-amino-7-isopropyl-7H-pyrrolo[2,3-d]pyrimidin-5-yl)carbonyl]pyridin-3-yl}-2-[3-(trifluoromethyl)phenyl]acetamide]: 4.7 nM. Next, `CC(C)n1cc(C(=O)c2cncc(NC(=O)Cc3ccc4ocnc4c3)c2)c2cnc(N)nc21` [Example 246, N-{5-[(2-amino-7-isopropyl-7H-pyrrolo[2,3-d]pyrimidin-5-yl)carbonyl]pyridin-3-yl}-2-(1,3-benzoxazol-5-yl)acetamide]: 35.6 nM; `CC(C)n1cc(C(=O)c2cncc(NC(=O)Cc3cccc(S(C)(=O)=O)c3)c2)c2cnc(N)nc21` [Example 247, N-{5-[(2-amino-7-isopropyl-7H-pyrrolo[2,3-d]pyrimidin-5-yl)carbonyl]pyridin-3-yl}-2-[3-(methylsulfonyl)phenyl]acetamide]: 71 nM. Next, `CC(C)c1cn(CC(=O)Nc2cncc(C(=O)c3cn(C(C)C)c4nc(N)ncc34)c2)nn1` [Example 248, N-{5-[(2-amino-7-isopropyl-7H-pyrrolo[2,3-d]pyrimidin-5-yl)carbonyl]pyridin-3-yl}-2-(4-isopropyl-1H-1,2,3-triazol-1-yl)acetamide]: 23.7 nM.

Turning to `CC(C)n1cc(C(=O)c2cncc(NC(=O)Cn3cc(C4CC4)nn3)c2)c2cnc(N)nc21` [Example 249, N-{5-[(2-amino-7-isopropyl-7H-pyrrolo[2,3-d]pyrimidin-5-yl)carbonyl]pyridin-3-yl}-2-(4-cyclopropyl-1H-1,2,3-triazol-1-yl)acetamide], the IC50 is 35.8 nM. Turning to `CC(C)n1cc(C(=O)c2cncc(NC(=O)Cc3ccc(Cl)cc3)c2)c2cnc(N)nc21` [Example 250, N-{5-[(2-amino-7-isopropyl-7H-pyrrolo[2,3-d]pyrimidin-5-yl)carbonyl]pyridin-3-yl}-2-(4-chlorophenyl)acetamide], the IC50 turned out to be 3.48 nM.
